Tested on: Ca^2+ channel
Assay: MEMRI signal modulated by Ca2+ channel activity in single cell culture
Assay type: cell-based, human
Conditions: cells labelled with Mn^2+; Ca^2+ channel antagonist or agonist

(s)-Bay K8644
MEMRI signal: increased
